Assays:
OAT1 = system: T1, OAT1; assay: Substrate specificity / uptake in HEK293-OAT1 cells; format: in vitro ADME; conditions: for Substrate for OAT1: HEK293-OAT1 vs mock, ± 20 μM probenecid
T1 construct: host or cells: HEK293
Procedure: (§1) HEK293-mock cells and HEK293 cells overexpressing OAT1 and OAT3 transporters (HEK293-OAT1 and -OAT3, respectively) were seeded in poly-D-lysine-coated 24-well plates at a density of 4 × 10^5 cells/well and cultured for 24 h in DMEM supplemented with 10% FBS and 5 mM non-essential amino acids at 37 °C in 8% CO2 condition.
(§2) For each experiment, the growth medium was discarded after 24 h, and the attached cells were washed with pre-warmed HBSS and incubated with pre-warmed HBSS for 20 min at 37 °C. To confirm the functionality of OAT1 and OAT3, we measured the uptake of 0.1 µM [^3H]PAH and 0.1 µM [^3H]ES, representative substrates for OAT1 and OAT3, respectively, into in the HEK293-mock cells and HEK293-OAT1 and -OAT3 cells, respectively, for 5 min in the presence and absence of 20 µM probenecid, a typical inhibitor for both OAT1 and OAT3 [8, 9]. The cells were then washed three times with 500 μL of ice-cold HBSS immediately after placing the plates on ice. Subsequently, cells were lysed with 10% sodium dodecyl sulfate and mixed with Optiphase cocktail solution overnight. The radioactivity of the cell lysate was measured using a liquid scintillation counter (Microbeta 2; Perkin Elmer Inc., Boston, MA, USA).
(§3) For the concentration dependency in the uptake of DWP16001, the uptake of DWP16001 in a concentration range of 0.5–50 μM dissolved in HBSS was measured for 5 min at 37 °C in the mock cells and HEK293-OAT1 and -OAT3 cells, respectively. After 5 min, the cells were washed three times with 500 μL of ice-cold HBSS immediately after placing the plates on ice.
(§4) In the concentration-dependent uptake studies, the transporter-mediated uptake of DWP16001 was calculated by the subtraction of the transport rates of DWP16001 into the mock cells from those of the HEK293-OAT1 and -OAT3 cells. Kinetic parameters for the OAT1- and OAT3-mediated transport of DWP16001 were determined using the Michaelis-Menten equation [V = Vmax⋅S/(Km + S)] [10].

[1] = Protein binding in mouse plasma (rapid equilibrium dialysis); conditions: 1000 ng/mL, 4 h at 37 °C, mean ± SD, triplicate
Procedure: (§5) Four hours after incubation at 37 °C on a shaking incubator at 300 rpm, aliquots (50 μL) were collected from both the sample and buffer chambers and treated with equal volumes of fresh PBS and blank plasma or blank kidney homogenate, respectively, to match the sample matrices. The matrix-matched sample (100 μL) was added 100 μL of aqueous solution of D4-DWP16001 (IS, 20 ng/mL), and vigorously mixed with 1000 μL MTBE for 15 min. After centrifugation at 16,000 g for 5 min, samples were kept for 1 h at −80 °C. An organic upper layer was transferred to a clean tube and evaporated to dryness under a gentle stream of nitrogen. Then, the dried extract was reconstituted in 300 µL of mobile phase and a 3 µL aliquot of the reconstituent was injected into the LC-MS/MS system.
Plasma protein binding was calculated using the following Equation (1) [6, 7]. (1) Undiluted free drug fraction (fu)=Drug concentration in buffer chamber/Drug concentration in plasma sample chamber

SGLT2 = biological target: T2, SGLT2 (Homo sapiens, UniProt P31639); assay: Inhibition of [14C]AMG uptake in CHO-SGLT2 cells; format: cell-based; conditions: for IC50: 10 μM [14C]AMG uptake, 2 h, CHO-SGLT2 minus mock, mean ± SD, triplicate
T2 construct: host or cells: CHO
T2 sequence (P31639 1-672): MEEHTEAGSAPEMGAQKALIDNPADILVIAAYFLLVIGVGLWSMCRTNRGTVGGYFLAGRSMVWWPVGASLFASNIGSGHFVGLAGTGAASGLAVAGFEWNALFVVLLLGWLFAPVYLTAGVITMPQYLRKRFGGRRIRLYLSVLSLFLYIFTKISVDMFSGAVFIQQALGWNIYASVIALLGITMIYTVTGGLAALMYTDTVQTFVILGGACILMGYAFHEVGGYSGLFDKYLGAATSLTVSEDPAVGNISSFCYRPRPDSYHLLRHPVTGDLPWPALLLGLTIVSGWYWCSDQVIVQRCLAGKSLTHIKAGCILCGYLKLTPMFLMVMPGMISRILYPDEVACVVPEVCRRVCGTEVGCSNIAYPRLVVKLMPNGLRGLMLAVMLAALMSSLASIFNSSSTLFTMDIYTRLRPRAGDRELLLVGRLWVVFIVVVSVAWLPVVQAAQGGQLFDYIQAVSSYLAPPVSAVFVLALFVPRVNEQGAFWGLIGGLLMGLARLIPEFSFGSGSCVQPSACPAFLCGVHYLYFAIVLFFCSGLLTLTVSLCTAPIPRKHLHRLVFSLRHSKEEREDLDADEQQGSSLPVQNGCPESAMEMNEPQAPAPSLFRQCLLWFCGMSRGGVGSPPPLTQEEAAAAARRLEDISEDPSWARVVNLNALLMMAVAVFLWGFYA
Procedure: CHO cells overexpressing SGLT1 and SGLT2 cells (CHO-SGLT1 and -SGLT2) and CHO-mock cells were characterized as previously described. Cells were maintained in RPMI1640 medium supplemented with 10% fetal bovine serum and 200 µg/mL G418 at 37 °C in 5% CO2 conditions. CHO-SGLT1 and -SGLT2 cells were seeded at a density of 1 × 10^5 cells/well in 96-well plates. After 24 h, the growth medium was discarded from the cells, and the cells were washed with pre-warmed Na^+-free buffer (10 mM HEPES, 5 mM Tris, 140 mM choline chloride, 2 mM KCl, 1 mM CaCl2, 1 mM MgCl2, pH7.4) and incubated for 1 h in Na^+-free buffer. After replacing Na^+-free buffer with Na^+ gradient buffer (10 mM HEPES, 5 mM Tris, 140 mM NaCl, 2 mM KCl, 1 mM CaCl2, 1 mM MgCl2, pH7.4) containing 10 µM [^14C]AMG, the uptake of [^14C]AMG into the CHO-mock cells and CHO-SGLT1 and -SLGT2 cells was measured for 0.5, 1, 1.5, 2, and 3 h. After a predetermined incubation time, cells were washed three times with 200 µL of ice-cold Na^+-free buffer immediately after placing the plates on ice. Then, the cells were lysed with 10% SDS, and the cell lysates were mixed with Optiphase cocktail solution. Thereafter, the radioactivity of the cell lysates was measured using a liquid scintillation counter.
After 2 h, cells were washed three times with 200 µL of ice-cold Na^+-free buffer and the cells were lysed with 10% SDS (40 µL), followed by adding Optiphase cocktail solution (200 µL). The radioactivity of the cell lysates was measured using a liquid scintillation counter. The SGLT1 or SGLT2-mediated uptake of [^14C]AMG was calculated by the subtraction of the uptake rates of [^14C]AMG into the mock cells from those of the CHO-SGLT1 and -SLGT2 cells. In the inhibition studies, the percentages of the transport rate of AMG with or without SGLT2 inhibitors were calculated and the data were fitted to an inhibitory effect model. The IC50 (the concentration of the inhibitor to show half-maximal inhibition) values were calculated using Sigma Plot ver.10.0 (Systat Software, Inc.; San Jose, CA, USA).

[2] = Protein binding in 20% mouse kidney homogenate (rapid equilibrium dialysis); conditions: corrected for dilution, 1000 ng/mL, 4 h at 37 °C, mean ± SD, triplicate
Procedure: as §5
Kidney protein binding was calculated using the following equations, Equations (2) and (3), and a dilution factor (D as a value of 5) for tissue homogenates was used since we used 20% kidney homogenates [6, 7]. (2) Diluted free drug fraction (fu′)=Drug concentration in buffer chamber/Drug concentration in kidney homogenate chamber, (3) Undiluted free drug fraction (fu)=1/D/(1/fu^′−1)+1/D=fu′×0.2/1−fu′×0.8.

OAT3 = system: T3, OAT3; assay: Substrate specificity / uptake in HEK293-OAT3 cells; format: in vitro ADME; conditions: for Substrate for OAT3: HEK293-OAT3 vs mock, ± 20 μM probenecid
T3 construct: host or cells: HEK293
Procedure: as §1, §2, §3, §4

in vivo = conditions: ICR, mouse, po, 1 mg/kg
Procedure: An aliquot (30 µL) of each plasma sample was stored at −80 °C until the analysis. […] An aliquot (50 µL) of each kidney homogenate sample was stored at −80 °C until the analysis.
For the analysis of SGLT2 inhibitors, aliquots of plasma (30 µL) and kidney homogenate (50 µL) were added to 100 μL of aqueous solution of D4-DWP16001 (IS, 20 ng/mL), and vigorously mixed with 500 μL methyl tert-butyl ether (MTBE) for 15 min. After centrifugation at 16,000 g for 5 min, samples were kept for 1 h at −80 °C to make an aqueous layer freeze. An organic upper layer was transferred to a clean tube and evaporated to dryness under a gentle stream of nitrogen. Then, the dried extract was reconstituted in 150 µL of mobile phase, and a 3 µL aliquot of the reconstituent was injected into a liquid chromatography–tandem mass spectrometry (LC–MS/MS) system.
Pharmacokinetic parameters, such as the area under plasma concentration-time curve from zero to infinity (AUC), were calculated from plasma concentration vs time curves using non-compartment analysis with WinNonlin (version 5.1; Pharsights, Cary, NC, USA). The AUC ratios (i.e., ratios of kidney AUC to plasma AUC) were calculated by dividing the AUC of the three SGLT2 inhibitors in the kidney by the plasma AUC values of the three SGLT2 inhibitors.

[3] = HEK293-OAT1 minus mock, 0.5–50 μM, 5 min
[4] = HEK293-OAT3 minus mock, 0.5–50 μM, 5 min

Compound | Increase of uptake in HEK293-OAT1 cells compared with mock cells (OAT1; 2 μM, 5 min) | Substrate for OAT1 (OAT1; 2 μM, 5 min) | OAT1-mediated uptake: CLint (OAT1; [3]) [µL/min] | OAT1-mediated uptake: Vmax (OAT1; [3]) [pmol/min] | Km at 5 min (OAT1; human, HEK293-OAT1 minus mock, 0.5–50 μM, read-out: OAT1-mediated uptake: Km) [µM] | Protein Binding (% Bound) Plasma [1] [% Bound] | Selectivity (IC50 Ratio of SGLT1/SGLT2) (SGLT2) | IC50 (SGLT2) [nM] | Protein Binding (% Bound) Kidney [2] [% Bound] | Increase of uptake in HEK293-OAT3 cells compared with mock cells (OAT3; 2 μM, 5 min) | Substrate for OAT3 (OAT3; 2 μM, 5 min) | OAT3-mediated uptake: CLint (OAT3; [4]) [µL/min] | OAT3-mediated uptake: Vmax (OAT3; [4]) [pmol/min] | Km at 5 min (OAT3; human, HEK293-OAT3 minus mock, 0.5–50 μM, read-out: OAT3-mediated uptake: Km) [µM] | logP (physchem) | AUC(0-inf) (in vivo) [ng·h/mL] | AUC(0-t) (in vivo) [ng·h/mL] | Cmax (in vivo) [ng/mL] | Kp (in vivo) | Tmax (in vivo) [min]
OC[C@H]1O[C@@H](c2cc(Cc3ccc(C4CC4)cc3)c(Cl)c3c2CCO3)[C@H](O)[C@@H](O)[C@@H]1O [DWP16001] | two-fold | a substrate | 3.1 | 119.2 | 38 | 98.50 ± 0.20 | 667 | 0.8 ± 0.3 | 97.24 ± 0.08 | two-fold | a substrate | 8.6 | 267.9 | 31.1 | – | – | – | – | – | –
OC[C@H]1O[C@@H](c2ccc(F)c(Cc3cc4ccccc4s3)c2)[C@H](O)[C@@H](O)[C@@H]1O [Ipragliflozin, ipragliflozin] | – | not substrates | – | – | – | – | 261 | 8.9 ± 1.7 | – | – | not substrates | – | – | – | 2.56 | 1970 ± 410 | 1960 ± 410 | 410 ± 59.1 | 38.4 ± 5.3 | 36 ± 12

— publication PMC7151106 (Pharmaceutics, 2020)
